T1: Cathepsin K (Homo sapiens, UniProt P43235)
T1 sequence (P43235 115-329): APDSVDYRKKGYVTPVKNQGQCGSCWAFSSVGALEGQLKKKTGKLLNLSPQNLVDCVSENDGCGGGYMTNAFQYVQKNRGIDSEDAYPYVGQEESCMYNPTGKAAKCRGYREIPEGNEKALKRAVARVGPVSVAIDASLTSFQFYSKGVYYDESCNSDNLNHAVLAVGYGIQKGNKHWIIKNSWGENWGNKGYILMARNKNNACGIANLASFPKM

B1: RANKL: Receptor Activator NFKB Ligand; stimulates RAW 264.7 cells to generate bone pit resorptive osteoclasts (protein, UniProt O35235 139-316, looked up)
Tumor necrosis factor ligand …: FSGAPAMMEGSWLDVAQRGKPEAQPFAHLTINAASIPSGSHKVTLSSWYHDRGWAKISNMTLSNGKLRVNQDGFYYLYANICFRHHETSGSVPTDYLQLMVYVVKTSIKIPSSHNLMKGGSTKNWSGNSEFHFYSINVGGFFKLRAGEEISIQVSNPSLLDPDQDATYFGAFKVQDID

Key:
Cathepsin K = target: T1, Cathepsin K; assay: Cathepsin K bone collagen digests (release of bone collagen, hydroxyproline); type: biochemical; settings: overall conclusion; Cathepsin K mediated release of bone collagen (FIG. 1)
Description: Fresh ovine bone was milled in a stainless steel mortar and pestle in liquid nitrogen. The resultant bone powder was defatted, decalcified and freeze-dried before storage at 4° C.
(ii) Cathepsin K Bone Collagen Digests • 2 mg of insoluble bone collagen powder was digested in 100 mM sodium acetate pH 5.5 containing 2.5 mM dithiothreitol and 2.5 mM EDTA with […] Cathepsin K and increasing doses of PPS. • Digestions were incubated at 37° C. for 24 hours and terminated by the addition of 2 μM E84. Residue and supernatant were hydrolysed separately and the hydroxyproline content measured.

RAW 264.7 cells = assay: Multinucleated (OCL) cell count in RAW 264.7 cell cultures ± RANKL; type: cell-based, Murine
Description: (iii) RAW 264.7 Cells • Murine macrophage RAW 264.7 cells respond to Receptor Activator NFKB Ligand (RANKL) stimulation to generate bone pit resorptive osteoclasts. • RAW cells were pre-cultured for several days in High-Glucose Dulbecco's Modified Eagles Medium (HG-DMEM) with 10% Fetal Calf Serum […] (0-50 μg/mL). • Cells were incubated at 37° C., 5% CO2 for 4 days. • The number of multinucleated cells present in each was counted by two observers at day 2, 3 and 4. The cells were then harvested for RNA extraction and subsequent RT-PCR.
(iv) H&E Staining • Identical cultures were prepared in petri dishes containing pre-labelled slides and incubated for 4 days, after which slides were carefully rinsed in PBS, immersed in ice-cold acetone and air-dried before freezing. • The slides were then stained with H&E before multinucleated osteoclasts were photographed and counted.

MMP-9 gene expression = assay: MMP9 gene expression by RAW 264.7 cells ± RANKL (RT-PCR); type: cell-based, Murine
Description: (§1) (iii) RAW 264.7 Cells • Murine macrophage RAW 264.7 cells respond to Receptor Activator NFKB Ligand (RANKL) stimulation to generate bone pit resorptive osteoclasts. • RAW cells were pre-cultured for several days in High-Glucose Dulbecco's Modified Eagles Medium (HG-DMEM) with 10% Fetal Calf Serum (FCS). • Cells were seeded at 250,000 cells/mL in HG-DMEM/10% FCS with/without […] RANKL and increasing doses of PPS (0-50 μg/mL). • Cells were incubated at 37° C., 5% CO2 for 4 days. • The number of multinucleated cells present in each was counted by two observers at day 2, 3 and 4. The cells were then harvested for RNA extraction and subsequent RT-PCR.

[1] = test system: Cathepsin K gene expression; assay: Cathepsin K gene expression by RAW 264.7 cells ± RANKL (RT-PCR); type: cell-based, Murine
Description: as §1

Row | Cathepsin K activity (Cathepsin K) | Molecule | RANKL-induced multinucleated OCL cell formation (RAW 264.7 cells; day 4, 0.5 μg/mL CaXPS vs absence of CaXPS, p<0.05 (FIG. 4B)) | RANKL-induced formation of true multinucleated (>4 nuclei/cell) OCL cells (RAW 264.7 cells; day 4, 10 μg/mL CaXPS (FIG. 4B)) | RANKL-induced formation of true multinucleated (>4 nuclei/cell) OCL cells (RAW 264.7 cells; day 4, 50 μg/mL CaXPS (FIG. 4B)) | number of cells containing 2-3 nuclei as a percentage total cells (RAW 264.7 cells; day 4, 50 μg/mL CaXPS, in the presence of RANKL, p<0.05 (FIG. 4A)) | number of cells containing 2-3 nuclei as a percentage total cells (RAW 264.7 cells; day 4, − vs + RANKL, at most concentrations of CaXPS (FIG. 4A)) | MMP-9 gene expression (MMP-9 gene expression; day 4, increasing concentrations of CaXPS in the absence of RANKL (FIG. 5B)) | MMP-9 expression (MMP-9 gene expression; day 4, presence of RANKL, 5 μg/mL CaXPS, p<0.05 (FIG. 5B)) | Cathepsin K gene expression ([1]; day 4, increasing concentrations of CaXPS in the absence of RANKL (FIG. 5A)) | Cathepsin K expression ([1]; day 4, presence of RANKL, lowest dose of CaXPS, p<0.05 (FIG. 5A)) | development of multinucleated cells (RAW 264.7 cells; RANKL 20 ng/mL added to RAW cells, by day 3, p<0.05 (FIGS. 2 and 3)) | expression of MMP-9 by RAW cells (MMP-9 gene expression; RANKL alone vs no RANKL (FIG. 5B)) | expression of Cathepsin K by RAW cells ([1]; RANKL alone vs no RANKL (FIG. 5A))
1 | down regulation | calcium xylopyranose polysulfate [CaXPS] | significantly more | inhibited | inhibited | significantly more 2-3 nucleated cells | still significantly increased | no marked effect | decrease | no marked effect | significant increase |  |  | 
2 |  | B1 |  |  |  |  |  |  |  |  |  | significant development of multinucleated cells | increased | increased
